In patent publication US10017585B2, “Methods and compositions for promoting hair growth” (Momenta Pharmaceuticals, Inc., priority 2010, dated 2018):

Tested on: female BALB/c mice
Assay: Hair regrowth score in shaved mice, MONC402 in combination with chemotherapy, 27 days
Format: in vivo
Protocol: The backs of eight week old female BALB/c mice were shaved. Osmotic pumps containing either saline or MONC402 were implanted into 64 mice (32 saline, 32 MONC402). Mice were further divided into groups receiving either saline or Docetaxel (10 mg/kg) once weekly ip starting 13 days after pump implant. Additionally, there was one group of naïve mice (n=4) as well as one group of mice receiving chemotherapy alone (Docetaxel, 10 mg/kg, once weekly ip starting 6 days after pump implant, n=16) which were not subject to shaving or pump implant. Staples used to close the implantation wound were removed 7 days later. Twenty seven days after pump implant, mice were scored for hair growth over the shaved area.

[1] = Docetaxel (10 mg/kg weekly ip) + Saline pump, 27 days

Which “Number of animals scored 4: full growth (indistinguishable from unshaved)” value (Docetaxel 10 mg/kg once weekly ip alone, No shaving or pump implant) does the source give for `CC(=O)O[C@@]12CO[C@@H]1C[C@H](O)[C@@]1(C)C(=O)[C@H](O)C3=C(C)[C@@H](OC(=O)[C@H](O)[C@@H](NC(=O)OC(C)(C)C)c4ccccc4)C[C@@](O)([C@@H](OC(=O)c4ccccc4)[C@H]21)C3(C)C` [Docetaxel] here?
Its value is 16/16.

And the “Number of animals scored 1.5” value [1]?
Its value is 1/16.

What about the “Number of animals scored 2: light growth” value [1] of the same compound?
Its value is 7/16.

What about the “Number of animals scored 2.5” value [1] of the same compound?
Its value is 2/16.

What about the “Number of animals scored 3: patchy/heavy growth” value [1] of the same compound?
Its value is 6/16.
